Measurements from ChEMBL document CHEMBL5390237, “Discovery of Selective Histone Deacetylase 1 and 2 Inhibitors: Screening of a Focused Library Constructed by Click Chemistry, Kinetic Binding Analysis, and Biological Evaluation” (J Med Chem, 2023).

molecular target: Histone deacetylase 2 (Homo sapiens, UniProt Q92769); assay: Inhibition of full-length recombinant human C-terminal GST tagged HDAC2 expressed in Sf9 insect cells using aminoluciferin peptide substrate at 100 nM preincubated for 3 hrs followed by substrate addition and measured after 30 mins by HDAC-Glo I/II chemiluminescence assay; conditions: time 3.5 hrs
Sequence (Q92769 whole entry): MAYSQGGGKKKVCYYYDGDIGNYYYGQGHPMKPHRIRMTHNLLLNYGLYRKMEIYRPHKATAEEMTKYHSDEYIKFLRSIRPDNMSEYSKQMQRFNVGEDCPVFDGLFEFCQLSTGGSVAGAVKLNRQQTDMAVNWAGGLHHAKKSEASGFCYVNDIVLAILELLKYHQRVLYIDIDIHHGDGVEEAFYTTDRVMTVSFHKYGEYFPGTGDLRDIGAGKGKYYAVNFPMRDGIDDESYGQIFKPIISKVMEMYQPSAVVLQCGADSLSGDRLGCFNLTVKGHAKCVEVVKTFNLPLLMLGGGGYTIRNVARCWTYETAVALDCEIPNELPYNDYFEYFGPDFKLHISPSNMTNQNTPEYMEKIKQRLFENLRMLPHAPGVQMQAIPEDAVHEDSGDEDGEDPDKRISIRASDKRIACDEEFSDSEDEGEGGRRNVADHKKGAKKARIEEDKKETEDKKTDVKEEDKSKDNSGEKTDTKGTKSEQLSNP

Structure (SMILES)	inhibition
Nc1ccc(-c2cccs2)cc1NC(=O)c1cccc(-c2cn(CCCCCCCC(=O)O)nn2)c1	3%
Nc1ccc(-c2cccs2)cc1NC(=O)c1cccc(-c2cn(-c3ccc(Br)cc3)nn2)c1	0%
Nc1ccc(-c2cccs2)cc1NC(=O)c1ccc(-c2cn(Cc3ccc4ccccc4n3)nn2)s1	30%
Nc1ccc(-c2cccs2)cc1NC(=O)c1ccc(-c2cn(CCc3ccccc3[N+](=O)[O-])nn2)s1	16%
Cc1cccc(C)c1NC(=O)Cn1cc(C(=O)Nc2cc(-c3ccccc3)ccc2N)nn1	9%
Nc1ccc(-c2cccs2)cc1NC(=O)c1ccc(-c2cn(/C=C/c3ccccc3)nn2)cc1	0%
Nc1ccc(-c2cccs2)cc1NC(=O)c1cccc(-c2cn(CCC3CCCC3)nn2)c1	0%
Nc1ccc(-c2ccccc2)cc1NC(=O)c1cn(CCN2CCc3ccccc3C2)nn1	0%
Nc1ccc(-c2cccnc2)cc1NC(=O)CCc1cn(CC(=O)c2ccccc2)nn1	3%
Nc1ccc(-c2ccc(F)cc2)cc1NC(=O)c1cn(Cc2cccc3ccccc23)nn1	8%
Nc1ccc(-c2cccs2)cc1NC(=O)c1cn(CCCCCCCC(=O)O)nn1	2%
Nc1ccc(-c2ccc(F)cc2)cc1NC(=O)c1cn(CCCCCCCC(=O)O)nn1	29%
Nc1ccc(-c2ccsc2)cc1NC(=O)c1cn(CCc2ccccc2Cl)nn1	0%
Nc1ccc(-c2cccs2)cc1NC(=O)c1cn(CCN2CCc3ccccc3C2)nn1	18%
Nc1ccc(-c2cccs2)cc1NC(=O)c1ccc(-c2cn(CC3CCCCC3)nn2)cc1	0%
Nc1ccc(-c2ccc(F)cc2)cc1NC(=O)CCc1cn(/C=C/c2ccccc2)nn1	3%
Nc1ccc(-c2ccccc2)cc1NC(=O)c1cn(CCCc2ccccc2)nn1	6%
COc1ccccc1CCn1cc(-c2cccc(C(=O)Nc3cc(-c4cccs4)ccc3N)c2)nn1	3%
Nc1ccc(-c2ccc(F)cc2)cc1NC(=O)c1cn(Cc2ccc(Oc3ccccc3)cc2)nn1	5%
Nc1ccc(-c2ccc(F)cc2)cc1NC(=O)c1cn(CC(=O)c2ccccc2)nn1	6%
Nc1ccc(-c2ccccc2)cc1NC(=O)c1cn(CCc2ccccn2)nn1	0%

Structure (SMILES)	inhibition
Nc1ccc(-c2ccccc2)cc1NC(=O)CCc1cn(CC2CCCCC2)nn1	0%
Cc1csc(CCn2cc(C(=O)Nc3cc(-c4cccs4)ccc3N)nn2)n1	15%
Cc1cccc(CCn2cc(C(=O)Nc3cc(-c4ccsc4)ccc3N)nn2)c1	7%
Nc1ccc(-c2cccs2)cc1NC(=O)c1cn(/C=C/c2ccccc2)nn1	12%
Nc1ccc(-c2ccccc2)cc1NC(=O)c1cn(CCc2cccc(F)c2)nn1	0%
Nc1ccc(-c2ccc(F)cc2)cc1NC(=O)CCc1cn(CCCCCCC(=O)O)nn1	6%
Nc1ccc(-c2ccccc2)cc1NC(=O)c1cn(CCc2cccc([N+](=O)[O-])c2)nn1	0%
Nc1ccc(-c2ccc(F)cc2)cc1NC(=O)c1cn(CCC2CCCCC2)nn1	5%
Nc1ccc(-c2cccs2)cc1NC(=O)c1cccc(-c2cn(CC(=O)Nc3ccc(F)cc3)nn2)c1	0%
Nc1ccc(-c2cccs2)cc1NC(=O)c1ccc(-c2cn(CCCCC(=O)O)nn2)s1	51%
COc1ccc(-n2cc(-c3cccc(C(=O)Nc4cc(-c5cccs5)ccc4N)c3)nn2)cc1	14%
Nc1ccc(-c2ccc(F)cc2)cc1NC(=O)c1cn(-c2ccc(Br)cc2)nn1	10%
Nc1ccc(-c2ccsc2)cc1NC(=O)CCc1cn(CCC2CCCC2)nn1	0%
Nc1ccc(-c2ccccc2)cc1NC(=O)CCc1cn(CCN2CCc3ccccc3C2)nn1	11%
Nc1ccc(-c2cccnc2)cc1NC(=O)CCc1cn(CCc2c[nH]c3ccccc23)nn1	19%
Nc1ccc(-c2ccsc2)cc1NC(=O)c1cn(/C=C/c2ccccc2)nn1	5%
Nc1ccc(-c2cccs2)cc1NC(=O)c1cccc(-c2cn(-c3ccc(I)cc3)nn2)c1	7%
Nc1ccc(-c2ccsc2)cc1NC(=O)c1cn(CS(=O)(=O)c2ccccc2)nn1	14%
Nc1ccc(-c2cccs2)cc1NC(=O)c1cccc(-c2cn(-c3cccc4ccccc34)nn2)c1	0%
Nc1ccc(-c2cccs2)cc1NC(=O)c1cccc(-c2cn(Cc3ccc4ccccc4n3)nn2)c1	4%

Now from value to compound:

inhibition	Structure (SMILES)
0%	Nc1ccc(-c2cccnc2)cc1NC(=O)CCc1cn(Cc2ccc(Oc3ccccc3)cc2)nn1
0%	Nc1ccc(-c2cccs2)cc1NC(=O)c1cccc(-c2cn(CCc3cccc(C(F)(F)F)c3)nn2)c1
9%	Nc1ccc(-c2cccs2)cc1NC(=O)CCc1cn(CCc2cccc(Cl)c2)nn1
0%	Nc1ccc(-c2cccs2)cc1NC(=O)CCc1cn(CCc2cccc3ccccc23)nn1
0%	Nc1ccc(-c2ccsc2)cc1NC(=O)CCc1cn(CCc2cccc3ccccc23)nn1
0%	Nc1ccc(-c2cccs2)cc1NC(=O)c1ccc(-c2cn(CCCCCCC(=O)O)nn2)cc1
24%	Nc1ccc(-c2cccs2)cc1NC(=O)CCc1cn(CCc2ccccc2[N+](=O)[O-])nn1
5%	CCc1ccc(Cn2cc(CCC(=O)Nc3cc(-c4cccnc4)ccc3N)nn2)cc1
27%	COc1ccc(Cn2cc(-c3ccc(C(=O)Nc4cc(-c5cccs5)ccc4N)s3)nn2)cc1
25%	Nc1ccc(-c2cccs2)cc1NC(=O)c1ccc(-c2cn(Cc3cccc(C(=O)O)c3)nn2)s1
26%	Nc1ccc(-c2ccc(F)cc2)cc1NC(=O)CCc1cn(Cc2ccc3ccccc3n2)nn1
5%	Nc1ccc(-c2ccsc2)cc1NC(=O)CCc1cn(CCCCCc2ccccc2)nn1
18%	Nc1ccc(-c2ccc(F)cc2)cc1NC(=O)CCc1cn(CCN2CCc3ccccc3C2)nn1
0%	Nc1ccc(-c2cccs2)cc1NC(=O)c1cccc(-c2cn(Cc3ccc(OC(F)(F)F)cc3)nn2)c1
13%	Nc1ccc(-c2ccccc2)cc1NC(=O)CCc1cn(CCc2ccccc2[N+](=O)[O-])nn1
24%	Nc1ccc(-c2cccs2)cc1NC(=O)CCc1cn(CCc2ccc(Cl)cc2)nn1
27%	Nc1ccc(-c2cccs2)cc1NC(=O)c1ccc(-c2cn(CCc3ccsc3)nn2)s1
9%	Nc1ccc(-c2cccs2)cc1NC(=O)c1cn(CCc2ccccc2)nn1
0%	Nc1ccc(-c2ccccc2)cc1NC(=O)CCc1cn(-c2ccc(I)cc2)nn1
1%	CCc1ccc(Cn2cc(CCC(=O)Nc3cc(-c4ccccc4)ccc3N)nn2)cc1
16%	Cc1ccc(CCn2cc(C(=O)Nc3cc(-c4cccs4)ccc3N)nn2)cc1
7%	Cc1ccccc1CCn1cc(CCC(=O)Nc2cc(-c3ccc(F)cc3)ccc2N)nn1
15%	Nc1ccc(-c2cccs2)cc1NC(=O)c1cn(CC(=O)c2ccccc2)nn1
30%	Cc1cccc(CCn2cc(CCC(=O)Nc3cc(-c4cccnc4)ccc3N)nn2)c1
0%	Nc1ccc(-c2ccsc2)cc1NC(=O)CCc1cn(Cc2ccc(Oc3ccccc3)cc2)nn1
13%	Nc1ccc(-c2cccs2)cc1NC(=O)c1cn(CCc2cccc([N+](=O)[O-])c2)nn1
17%	Nc1ccc(-c2ccc(F)cc2)cc1NC(=O)CCc1cn(CCc2cccc(Cl)c2)nn1

inhibition	Structure (SMILES)
0%	Nc1ccc(-c2ccccc2)cc1NC(=O)CCc1cn(Cc2cccc(-c3ccccc3)c2)nn1
31%	Nc1ccc(-c2ccsc2)cc1NC(=O)CCc1cn(Cc2ccc(C(=O)O)cc2)nn1
23%	Nc1ccc(-c2cccnc2)cc1NC(=O)CCc1cn(CCc2ccccc2)nn1
0%	Nc1ccc(-c2ccccc2)cc1NC(=O)CCc1cn(CCc2ccccc2C(F)(F)F)nn1
27%	Nc1ccc(-c2cccs2)cc1NC(=O)CCc1cn(CCc2ccc([N+](=O)[O-])cc2)nn1
17%	COc1ccc(CCn2cc(CCC(=O)Nc3cc(-c4ccccc4)ccc3N)nn2)cc1
2%	CCc1ccc(Cn2cc(CCC(=O)Nc3cc(-c4ccc(F)cc4)ccc3N)nn2)cc1
19%	Nc1ccc(-c2cccs2)cc1NC(=O)c1cn(CCc2ccccc2[N+](=O)[O-])nn1
36%	Nc1ccc(-c2cccs2)cc1NC(=O)c1ccc(-c2cn(CCCCC(=O)O)nn2)cc1
7%	Nc1ccc(-c2cccnc2)cc1NC(=O)CCc1cn(CCc2ccc(Cl)cc2)nn1
33%	Nc1ccc(-c2ccc(F)cc2)cc1NC(=O)CCc1cn(CCc2ccc(C(=O)O)cc2)nn1
17%	Nc1ccc(-c2cccs2)cc1NC(=O)CCc1cn(C[S+]([O-])c2ccccc2)nn1 (stereo not given)
0%	Nc1ccc(-c2ccccc2)cc1NC(=O)CCc1cn(CCc2ccsc2)nn1
6%	Nc1ccc(-c2cccs2)cc1NC(=O)c1ccc(-c2cn(CCc3cccc(Cl)c3)nn2)s1
6%	COc1ccc(-n2cc(C(=O)Nc3cc(-c4cccs4)ccc3N)nn2)cc1
10%	COc1ccc(Cn2cc(CCC(=O)Nc3cc(-c4cccnc4)ccc3N)nn2)cc1
5%	Nc1ccc(-c2cccs2)cc1NC(=O)c1ccc(-c2cn(CCc3ccccc3Cl)nn2)s1
17%	Nc1ccc(-c2cccs2)cc1NC(=O)CCc1cn(Cc2ccc(OC(F)(F)F)cc2)nn1
0%	CCc1ccc(Cn2cc(C(=O)Nc3cc(-c4ccc(F)cc4)ccc3N)nn2)cc1
3%	Nc1ccc(-c2cccs2)cc1NC(=O)CCc1cn(CCc2cccc(C(F)(F)F)c2)nn1
32%	Nc1ccc(-c2cccs2)cc1NC(=O)c1cn(Cc2ccc(C(=O)O)cc2)nn1
11%	COc1ccc(-n2cc(CCC(=O)Nc3cc(-c4ccccc4)ccc3N)nn2)cc1
0%	Nc1ccc(-c2cccs2)cc1NC(=O)c1cccc(-c2cn(CCc3ccc(F)cc3)nn2)c1
3%	Nc1ccc(-c2cccnc2)cc1NC(=O)CCc1cn(Cc2ccc3ccccc3n2)nn1
12%	COc1ccc(-n2cc(CCC(=O)Nc3cc(-c4ccsc4)ccc3N)nn2)cc1
0%	Nc1ccc(-c2cccs2)cc1NC(=O)CCc1cn(-c2cccc3ccccc23)nn1
27%	Cc1cccc(CCn2cc(CCC(=O)Nc3cc(-c4ccccc4)ccc3N)nn2)c1
